Values quoted from earlier work, collected in US12036216B2 (TAHO Pharmaceuticals Ltd., priority 2021, dated 2024).
Where a name gives a salt, the structure may show the parent alone. Read-outs that look alike come from different tables or passages of the source.

Key:
[1] = not given; remark: listed apart in the source
[2] = not given; remark: listed apart in the source
factor Xa = conditions: dog; read-out: IC50 for anti-factor Xa activity
prothrombin time (PT) [3] = conditions: rat; read-out: apparent Ki for PT
prothrombin time (PT) [4] = conditions: dog; read-out: apparent Ki for PT
prothrombin time (PT) [5] = conditions: chimpanzee; read-out: apparent Ki for PT
[6] = not given; remark: listed apart in the source
[7] = immediate release tablet formulation
[8] = pellets taken without the capsule shell compared with the intact capsule formulation

SMILES	Renal clearance as share of systemic clearance (rat)	absolute oral bioavailability (rat)	clearance (CL) (rats)	steady-state volume of distribution (Vd) (rats)	Renal clearance as share of systemic clearance ([1]; dog)	absolute oral bioavailability ([1]; dog)	clearance (CL) ([1]; dogs)	steady-state volume of distribution (Vd) ([1]; dogs)	Renal clearance as share of systemic clearance ([2]; chimpanzee)	absolute oral bioavailability ([2]; chimpanzee)	clearance (CL) ([2]; chimpanzees)	steady-state volume of distribution (Vd) ([2]; chimpanzees)	IC50 (factor Xa)	Ki (prothrombin time (PT) [3])	Ki (prothrombin time (PT) [4])	Ki (prothrombin time (PT) [5])	time to peak apixaban plasma concentration ([6]; after oral administration in healthy adults)	bioavailability ([6]; oral)	dissolved within 30 minutes [7]	increase of oral bioavailability [8]
COc1ccc(-n2nc(C(N)=O)c3c2C(=O)N(c2ccc(N4CCCCC4=O)cc2)CC3)cc1 [apixaban, Apixaban]	[…]	[…]	[…]	[…]	[…]	[…]	~0.04 L/h/kg	~0.2 L/kg	[…]	[…]	[…]	~0.17 L/kg	[…]	~1700 nM	~6.6 µM	~4.8 µM	[…]	[…]	at least 80%	
CCCCCCOC(=O)NC(=N)c1ccc(NCc2nc3cc(C(=O)N(CCC(=O)OCC)c4ccccn4)ccc3n2C)cc1 [dabigatran etexilate mesylate]																				75%
